The record followed here is PubChem BioAssay AID330 (DTP/NCI, 2004).

Molecules are shown by their SMILES. Values joined by “and” are separate entries in the source; they are usually repeats but may differ in a detail not shown here. Equal values may be shown once. Toxic doses and inconclusive results are not listed. Peptide text beside a SMILES is read from it.

This assay relates to P388 leukemia ip, CD2F1 mice, survival T/C. Briefly: NCI In Vivo Anticancer Drug Screen. Data for tumor model P388 Leukemia (intraperitoneal) in CD2F1 (CDF1) mice. The settings on record: endpoint: median survival time, higher = longer survival. Summed up:
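Mice carrying the transplanted tumor received test compound or vehicle. Survival was recorded in each group, and the value is the treated-group measurement divided by that of the vehicle-treated control group.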

Where [1] appears, read: dose: 60.0 mg/kg/injection, schedule: Q01DX005 (ip), vehicle: saline with Tween-80.
The mark [2] stands for this setting: dose: 120.0 mg/kg/injection, schedule: Q01DX005 (ip), vehicle: saline with Tween-80.
Where [3] appears, read: dose: 240.0 mg/kg/injection, schedule: Q01DX005 (ip), vehicle: saline with Tween-80.
Where [4] appears, read: dose: 100.0 mg/kg/injection, schedule: Q04DX002 (ip), vehicle: Klucel (hydroxypropylcellulose) (HPC).
[5] abbreviates: dose: 200.0 mg/kg/injection, schedule: Q04DX002 (ip), vehicle: Klucel (hydroxypropylcellulose) (HPC).
Setting [6] is: dose: 400.0 mg/kg/injection, schedule: Q04DX002 (ip), vehicle: Klucel (hydroxypropylcellulose) (HPC).
Setting [7] is: dose: 50.0 mg/kg/injection, schedule: Q01DX009 (ip), vehicle: saline with Tween-80.
Where [8] appears, read: dose: 100.0 mg/kg/injection, schedule: Q01DX009 (ip), vehicle: saline with Tween-80.
[9] abbreviates: dose: 200.0 mg/kg/injection, schedule: Q01DX009 (ip), vehicle: saline with Tween-80.

`CCCCNC(C)C1(O)Cc2c(O)c3c(c(O)c2C(OC2CC(N)C(O)C(C)O2)C1)C(=O)c1c(OC)cccc1C3=O` (configuration not stated): the T/C by setting is: (dose: 0.62 mg/kg/injection, schedule: Q01DX009 (ip), vehicle: water) 111 % of control; (dose: 10.0 mg/kg/injection, schedule: Q01DX009 (ip), vehicle: water) 158 % of control and 161 % of control; (dose: 20.0 mg/kg/injection, schedule: Q01DX009 (ip), vehicle: water) 172 % of control and 181 % of control; (dose: 40.0 mg/kg/injection, schedule: Q01DX009 (ip), vehicle: water) 224 % of control; (dose: 80.0 mg/kg/injection, schedule: Q01DX009 (ip), vehicle: water) 218 % of control.

`CSc1nc(N)c2cnn(C3OC(CO)C(O)C3O)c2n1` (configuration not stated): the T/C is 100 % of control (dose: 50.0 mg/kg/injection, schedule: Q01DX005 (ip), vehicle: saline with Tween-80); 109 % of control (dose: 100.0 mg/kg/injection, schedule: Q01DX005 (ip), vehicle: saline with Tween-80); 100 % of control (dose: 200.0 mg/kg/injection, schedule: Q01DX005 (ip), vehicle: saline with Tween-80).

`CS(=O)(=O)OC1C(O)C(n2cnc3c(N)ncnc32)C(O)C(OS(C)(=O)=O)C1OS(C)(=O)=O` (configuration not stated): the T/C was 98 % of control under setting [1], 95 % of control under setting [2] and 96 % of control under setting [3].

Regarding `[Mn]=[Se]`, the T/C (dose: 7.5 mg/kg/injection, schedule: Q01DX005 (ip), vehicle: other) was 101 % of control; the T/C (dose: 15.0 mg/kg/injection, schedule: Q01DX005 (ip), vehicle: other) is 100 % of control and 103 % of control; the T/C (dose: 30.0 mg/kg/injection, schedule: Q01DX005 (ip), vehicle: other) was 103 % of control and 94 % of control; the T/C (dose: 60.0 mg/kg/injection, schedule: Q01DX005 (ip), vehicle: acid diluted with saline) was 110 % of control; the T/C (dose: 60.0 mg/kg/injection, schedule: Q01DX005 (ip), vehicle: other) is 100 % of control.

As for `CCc1nc(N)nc(N)c1-c1ccc(N2CCCCC2)c([N+](=O)[O-])c1`, the T/C runs as follows: (dose: 3.13 mg/kg/injection, schedule: Q01DX009 (ip), vehicle: distilled water + Tween-80) 104 % of control; (dose: 6.25 mg/kg/injection, schedule: Q01DX009 (ip), vehicle: distilled water + Tween-80) 99 % of control; (dose: 12.5 mg/kg/injection, schedule: Q01DX009 (ip), vehicle: distilled water + Tween-80) 95 % of control; (dose: 25.0 mg/kg/injection, schedule: Q01DX009 (ip), vehicle: distilled water + Tween-80) 95 % of control; (dose: 50.0 mg/kg/injection, schedule: Q01DX009 (ip), vehicle: distilled water + Tween-80) 99 % of control and 90 % of control and 92 % of control; (dose: 100.0 mg/kg/injection, schedule: Q01DX009 (ip), vehicle: distilled water + Tween-80) 107 % of control and 86 % of control. Further, where the note is “dose: 200.0 mg/kg/injection, schedule: Q01DX009 (ip), vehicle: distilled water + Tween-80”, the T/C is 90 % of control.

For `O=C(C(=O)N1CCC(O)CC1)c1c[nH]c2ccccc12`, the T/C was 98 % of control (dose: 50.0 mg/kg/injection, schedule: Q01DX009 (ip), vehicle: Klucel (hydroxypropylcellulose) (HPC)); 101 % of control (dose: 100.0 mg/kg/injection, schedule: Q01DX009 (ip), vehicle: Klucel (hydroxypropylcellulose) (HPC)); 100 % of control (dose: 200.0 mg/kg/injection, schedule: Q01DX009 (ip), vehicle: Klucel (hydroxypropylcellulose) (HPC)).

As to `COC(=O)C1(CC(=O)c2cc(Cl)ccc2Cl)NC(=S)NC(=O)C1C#N` (configuration not stated), the T/C was 94 % of control under setting [1], 92 % of control under setting [2] and 95 % of control under setting [3].

Turning to `c1cnc2c(c1)Nc1cnncc1S2`, the T/C by setting is: under setting [4], 98 % of control; under setting [5], 100 % of control; under setting [6], 92 % of control.

Turning to `c1cc2cc(c1)CSCCCSCc1cccc(c1)CSCCCSC2`, the T/C reads like this: (dose: 50.0 mg/kg/injection, schedule: Q04DX002 (ip), vehicle: saline) 103 % of control; (dose: 100.0 mg/kg/injection, schedule: Q04DX002 (ip), vehicle: saline) 105 % of control; (dose: 200.0 mg/kg/injection, schedule: Q04DX002 (ip), vehicle: saline) 100 % of control.

Take `COC(=O)c1nc(N)nc(C(=O)OC)c1C(=O)c1cccc2ccccc12`: the T/C is, setting by setting: (dose: 60.0 mg/kg/injection, schedule: Q01DX005 (ip), vehicle: Klucel (hydroxypropylcellulose) (HPC)) 99 % of control; (dose: 120.0 mg/kg/injection, schedule: Q01DX005 (ip), vehicle: Klucel (hydroxypropylcellulose) (HPC)) 100 % of control.

With `CC(=O)Nc1ccc(OCCCN2CCOCC2)cc1`, the T/C is, setting by setting: under setting [4], 102 % of control; under setting [5], 101 % of control; under setting [6], 95 % of control.

Turning to `Cc1ccc(N=C2N=C(Nc3ccc(C)cn3)c3ccccc32)nc1`, the T/C by setting is: under setting [7], 92 % of control; under setting [8], 91 % of control; under setting [9], 96 % of control.

For the compound `COc1ccccc1Cc1c(OC)cc(OC)c(C(=O)CCc2ccccc2)c1O`, the T/C (dose: 3.2 mg/kg/injection, schedule: Q01DX009 (ip), vehicle: other) is 100 % of control; the T/C (dose: 4.3 mg/kg/injection, schedule: Q01DX009 (ip), vehicle: other) is 110 % of control; the T/C (dose: 6.4 mg/kg/injection, schedule: Q01DX009 (ip), vehicle: other) was 100 % of control and 105 % of control; the T/C (dose: 9.6 mg/kg/injection, schedule: Q01DX009 (ip), vehicle: other) was 114 % of control and 97 % of control; the T/C (dose: 14.0 mg/kg/injection, schedule: Q01DX009 (ip), vehicle: other) is 89 % of control; the T/C (dose: 28.0 mg/kg/injection, schedule: Q01DX009 (ip), vehicle: other) was 91 % of control.

With `Cc1nc(SCC(N)=O)nc2sc(SCC(N)=O)nc12`, the T/C was 96 % of control (dose: 100.0 mg/kg/injection, schedule: Q04DX002 (ip), vehicle: suspension in saline); 99 % of control (dose: 200.0 mg/kg/injection, schedule: Q04DX002 (ip), vehicle: suspension in saline); 98 % of control (dose: 400.0 mg/kg/injection, schedule: Q04DX002 (ip), vehicle: suspension in saline).

For the compound `OCC1OC(n2c(=S)[nH]c3ccccc32)C(O)C1O` (configuration not stated), the T/C is 98 % of control under setting [1] and 98 % of control under setting [2].

Consider `Cc1ccc(S(=O)(=O)N/N=C(\Cc2ccccc2)c2ccc(Br)cc2)cc1`, for which the T/C is 99 % of control under setting [7]; 99 % of control under setting [8]; 98 % of control (dose: 100.0 mg/kg/injection, schedule: Q01DX009 (ip), vehicle: saline); 90 % of control under setting [9]; 98 % of control (dose: 200.0 mg/kg/injection, schedule: Q01DX009 (ip), vehicle: saline).

For the compound `NCCCCC(NC(=O)C(N)CCCN=C(N)N)C(=O)O` (stereo not drawn) (H-Arg-Lys-OH; configuration not given here), the T/C was 94 % of control (dose: 50.0 mg/kg/injection, schedule: Q01DX005 (ip), vehicle: saline); 106 % of control (dose: 100.0 mg/kg/injection, schedule: Q01DX005 (ip), vehicle: saline); 100 % of control (dose: 200.0 mg/kg/injection, schedule: Q01DX005 (ip), vehicle: saline).

In the case of `COc1cc([N+](=O)[O-])c(S(=O)(=O)O)cc1N=N/C=N/Nc1cc(S(=O)(=O)O)c([N+](=O)[O-])cc1OC`, the T/C is, setting by setting: (dose: 50.0 mg/kg/injection, schedule: Q01DX005 (ip), vehicle: Klucel (hydroxypropylcellulose) (HPC)) 118 % of control; (dose: 100.0 mg/kg/injection, schedule: Q01DX005 (ip), vehicle: Klucel (hydroxypropylcellulose) (HPC)) 110 % of control; (dose: 200.0 mg/kg/injection, schedule: Q01DX005 (ip), vehicle: Klucel (hydroxypropylcellulose) (HPC)) 108 % of control.

With `CCOc1cccc2c1C(=O)c1cccc(OCC)c1C2(O)C#Cc1ccccc1` (configuration not stated), the T/C was 90 % of control (dose: 100.0 mg/kg/injection, schedule: Q04DX002 (ip), vehicle: saline with Tween-80); 87 % of control (dose: 200.0 mg/kg/injection, schedule: Q04DX002 (ip), vehicle: saline with Tween-80); 86 % of control (dose: 400.0 mg/kg/injection, schedule: Q04DX002 (ip), vehicle: saline with Tween-80).

For the compound `CCOC(=O)c1ccc(N(CCNc2cnc(NC(C)=O)[nH]c2=O)C(C)=O)cc1`, the T/C is, setting by setting: (dose: 25.0 mg/kg/injection, schedule: Q01DX009 (ip), vehicle: saline with Tween-80) 92 % of control; under setting [7], 88 % of control; under setting [8], 92 % of control; under setting [9], 89 % of control.
